Laboratory results from patent publication US20110076240A1, “Antifungal and Anti-Cariogenic Cellobio-Oligosaccharides Produced by Dextransucrase” (priority 2008, published 2011).

Tested on: mutansucrase
Assay: Inhibition of water insoluble glucan synthesis (absorbance at 550 nm; adherence to glass vials)
Type: biochemical, Streptococcus mutans and S. sorbrinus
Settings: 50 mM test substance, 1 M sucrose, 37° C., 48 h
Method: Isolation of Oral Bacteria and Production of Mutansucrase: Oral bacteria were collected by a cotton swab from human teeth and streaked onto a brain heart infusion (BHI) agar containing 4% sucrose. The culture was grown at 37° C. until visible colonies of Streptococcus mutans and S. sorbrinus appeared. The colonies were grown in 1 L BHI at 37° C. with shaking at 150 rpm for 24-36 h to induce production of mutansucrase secreted outside the cell membrane. After incubation, the culture was harvested by centrifugation, and the supernatant with the mutansucrase was concentrated to 100 ml using a 30 K cut-off membrane filter. One unit of mutansucrase in the concentrated supernatant was defined as the amount of enzyme that catalyzes the formation of 1 μmol of fructose per minute at 37° C., pH 7.0, from 100 mM sucrose.
These cultures were grown in glass vials at 37° C. for 48 h.
The supernatants of individual reaction mixtures were discarded such that the insoluble glucans remained in the vial. To compare the amount of insoluble glucans produced, the synthesized glucans on the glass were washed with a HEPES buffer and dissolved in 0.5 N NaOH. The resulting wash was used to measure the soluble glucans. The absorbance of water insoluble glucans was measured at 550 nm. For visualization, synthesized glucans were dyed with a drop of dental disclosing solution.

For `O=C[C@H](O)[C@@H](O)[C@H](O[C@@H]1O[C@H](CO)[C@@H](O)[C@H](O)[C@H]1O)[C@H](O)CO` [cellobiose], the “insoluble glucans produced compared to the control mixture” value was “did not affect”.
